The results in this text go back to patent publication US10881623B2, “Compositions for the management of hyperglycemia and related conditions” (SAMI LABS LIMITED, priority 2017, dated 2021).

Data set [1] in a line: Anti-glycation, Ribose-BSA method, vesperlysine-like AGE. The procedure: (§1) AGEs can be fluorescent as well as non fluorescent in nature. Typically the vesperlysine type of AGE have an excitation at 370-nm and emission at 440 nm, while pentosidine like AGE have an excitation at 335 nm and emission at 385 nm. The principle is based on the fact that ribose sugar and bovine serum albumin are mixed in specific ratio and incubated for 24 hours. Vesperlysine like AGE formed by the reaction was e estimated by the increase in fluorescence detected, at Ex/Em at 390/460 nm and pentosidines were detected at Ex/Em at 320/405 nm
(§2) Ribose—BSA method: 10 μl of various concentrations of samples were added to 40 μl of BSA (bovine serum albumin, 25 mg/ml stock) and 50 μl of D-Ribose (150 mg/ml stock) was added per well of black 96-well microplate and incubated for 24 h at 37° C. BSA was taken as the control. The AGEs (advanced glycation end product) formed were detected by the fluorescence at Ex/Em at 390/460 nm for vesperlysine and Ex/Em at 320/405 nm for pentosidine AGE.

The nature of data set [2]: Anti-glycation, Ribose-BSA method, pentosidine AGE. On the procedure: as §1, §2
In data set [3] the test system is Muscle cells (C2C12 myotubes). Kind of data set: Glucose uptake (2-NBDG, flow cytometry) in differentiated C2C12 myotubes. It is filed as cell-based. Particulars: compared to thymoquinone; FIG. 2. On the procedure: The skeletal muscle cell line C2C12 myoblasts (procured from ATCC) were maintained in DMEM supplemented with 10% Fetal Bovine Serum at 37° C. with 5% CO2. Twenty thousand cells per well were seeded in a 24 well plate. When the cells reached 80-90% confluence, differentiation was induced by replacing the growth medium with DMEM containing 1% horse serum. Experiments were performed in completely differentiated C2C12 myotubes after 4-5 days in differentiation medium. Cells were then treated with 0.5% BSA in low glucose media for 16 hours and washed with cold Krebs-Ringer phosphate buffer without glucose. Cells were then treated with different non cytotoxic concentrations of samples in low glucose DMEM media with or without insulin at a concentration of 0.1 μM for 30 minutes at 37° C. Cells were then washed with cold PBS and stained with 5 μM of a fluorescent D-glucose analog 2-[N-(7-nitrobenz-2-oxa-1,3-diazol-4-yl) amino]-2-deoxy-D-glucose (2-NBDG) for 15 minutes in dark followed by flow cytometric detection of fluorescence produced by the cells.
In general terms: A flow cytometer gives signals particle by particle.

The subject of the next data set is TNF-α. Briefly: TNF-α secretion by LPS-stimulated THP-1 cells (ELISA). It is filed as cell-based, human. Particulars: for inhibition at 0.03 µg/mL / inhibition at 0.06 µg/mL / inhibition at 0.13 µg/mL: Homo sapiens, THP-1, LPS 0.1 μg/mL, 24 hour; for inhibition at 0.03 µg/mL: 0.03 μg/mL; for inhibition at 0.06 µg/mL: 0.06 μg/mL; for inhibition at 0.13 µg/mL: 0.13 μg/mL. On the procedure:
Cells: THP1-human monocytes purchased from American Type Culture Collection (ATCC, Manassas, Va.) and maintained as a monolayer culture in Rosewell park memorial institute Medium (RMPI Life technologies, CA, USA.) supplemented with 10% (v/v) heat-inactivated foetal bovine serum (FBS; GIBCO/Invitrogen, Carlsbad, Calif.), 100 units/mL penicillin and 100 μg/mL streptomycin (Life technologies) at 37° C. in a humidified 5% CO2 incubator.
Reagents and buffers: Lipopolysaccharide (LPS, Sigma chemicals, USA), Phosphate buffered saline, RPMI, FBS
ELISA kit: Human TNF ELISA kit, Krishgen Biosciences, USA
Anti inflammatory activity was examined using human monocyte/macrophage cell line THP-Monocytes respond to lipopolysaccharides (LPS) by secreting proinflammatory cytokines. Tumour necrosis factor (TNF-α) is one of the principle cytokine which triggers a cascade of inflammatory reactions. The concentration of TNF-α was measured using an Enzyme linked Immunosorbent assay (ELISA). Reduction in TNF-α concentration indicates an anti inflammatory activity of the compound.
1×10^5 THP-1 cells were stimulated with 100 ng with lipopolysacharide (LPS, 0.1 μg/mL) to induce TNF-α secretion. Cells were pre treated with different concentrations of test materials (Thymoquinone, thymohydroquinone and a composition comprising thymohydroquinone) before LPS treatment. The cell supernatants were collected 24 hour after treatment and secreted TNF-α as estimated by cytokine ELISA as described by the manufacturer. Unstimulated cells were used as negative control. The limit of detection was <1 pg/mL.
(In general: An ELISA detects its analyte on a solid surface through an enzyme-linked reagent.)

The subject of a further data set is Adipocytes. Briefly: Glucose uptake in adipocytes. It is filed as cell-based. Particulars: compared to thymoquinone; FIG. 2.
A short description of data set [4]: DPPH radical scavenging assay. Particulars: concentration reducing DPPH absorbance by 50%. The procedure:
DPPH is a stable free radical in a methanolic solution with an absorbance at 520 nm. If the free radicals are scavenged by an anti oxidant molecule, the resulting solution appears yellow. The hydrogen atoms or electrons donation ability of the extracellular metabolite was measured by the bleaching of purple coloured DPPH methanol solution.
Thymoquinone, Thymohydroquinone and the composition comprising thymohydroquinone were prepared in varying concentrations. For the DPPH radical scavenging assay, 20 μL of test material was mixed with 180 μL of DPPH in methanol in a 96 well plate following the method as described earlier (Clarke et al., 2013). The plate was kept in the dark for 15 min, after which the absorbance of the solution was measured at 540 nm using a microplate reader (TECAN Ltd, Männedorf, Switzerland). Blanks (DMSO, methanol) and standard (Trolox solution in DMSO) were recorded simultaneously. The extracts were screened with variable concentrations to establish the inhibition concentration (IC50, the concentration reducing DPPH absorbance by 50%).
The free radical scavenging activity was calculated as follows,
Where, • B=Absorbance of reference solution (OD of DPPH) • C=Absorbance of reference solution, blank (OD of Methanol only) • S=Absorbance of test solution • […]
On the technique in general: The DPPH test is a chemical assay of radical scavenging.

Another data set deals with T1, α-glucosidase (Saccharomyces cerevisiae, UniProt P53341).
T1 construct: purchased Sigma-Aldrich G5003
Briefly: α-glucosidase inhibition (paranitrophenyl-α-d-glucopyranoside substrate). It is filed as biochemical. The settings on record: enzyme 0.15 U/ml, substrate 1.25 mM, absorbance 405 nm. On the procedure:
For glucosidase inhibition, α-glucosidase (Code G5003; Sigma-Aldrich, St. Louis, Mo., USA) was dissolved in 67 mM potassium phosphate buffer, pH 6.8, containing 8 containing 0.2% Bovine Serum Albumin (Sigma-Aldrich) & 0.02% sodium azide (Sigma-Aldrich) which was used as enzyme source. Paranitrophenyl-α-d-glucopyranoside (Sigma-Aldrich) was used as substrate. Thymoquinone, thymohydroquinone and composition containing thymohydroquinone were weighed prepared at concentration of 63, 125, 250 and 500 μg/ml and were made up with equal volumes of distilled water. 50 μl of said composition was incubated for 5 min with 50 μl enzyme source (0.15 U/ml). After incubation, 50 μl of substrate (1.25 mM) was added and further incubated for 20 min at room temperature. Presubstrate and post-substrate addition, absorbance was measured at 405 nm on a microplate reader (BMG FLUOstar OPTIMA Microplate Reader). The increase in absorbance on substrate addition was obtained. Each test was performed three times and the mean absorption was used to calculate percentage α-glucosidase inhibition. Acarbose was used as positive control with various concentrations. The inhibitory activities of varying concentrations of said composition were expressed as 100 minus the absorbance difference (%) of the said composition relative to the absorbance change of the negative control (i.e., water used as the test solution). […]

T1 sequence (P53341 whole entry): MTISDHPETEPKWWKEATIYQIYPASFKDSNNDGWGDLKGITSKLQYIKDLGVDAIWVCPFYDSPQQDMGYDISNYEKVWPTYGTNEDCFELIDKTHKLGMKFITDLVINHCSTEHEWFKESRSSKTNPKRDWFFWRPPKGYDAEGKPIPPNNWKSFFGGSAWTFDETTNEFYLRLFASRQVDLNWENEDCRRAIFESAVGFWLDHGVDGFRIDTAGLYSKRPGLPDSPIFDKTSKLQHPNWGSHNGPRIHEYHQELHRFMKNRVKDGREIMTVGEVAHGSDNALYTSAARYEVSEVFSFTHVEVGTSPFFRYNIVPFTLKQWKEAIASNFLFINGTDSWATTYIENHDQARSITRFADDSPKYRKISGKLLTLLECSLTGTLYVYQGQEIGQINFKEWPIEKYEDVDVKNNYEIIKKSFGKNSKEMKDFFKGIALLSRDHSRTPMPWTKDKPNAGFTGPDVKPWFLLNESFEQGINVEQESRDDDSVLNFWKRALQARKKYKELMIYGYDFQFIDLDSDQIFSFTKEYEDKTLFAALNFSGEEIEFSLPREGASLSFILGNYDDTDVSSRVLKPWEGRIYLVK

The term inhibition denotes the share of the control response that was lost under treatment. A low value points to little suppression. The term IC50 denotes the concentration at which inhibition is half-maximal. Read a high IC50 as a need for much substance. `Cc1cc(O)c(C(C)C)cc1O` [Thymohydroquinone, thymohydroquinone]: the “IC50, inhibition of vesperlysine Ex/Em at 390/460 nM” value in data set [1] stood at 108.30 µg/mL. The “% inhibition of vesperlysine Ex/Em at 390/460 nm” value in data set [1] (15.63 μg/mL) is reported as 23.03%; in data set [1] (31.25 μg/mL), 34.06%; in data set [1] (62.5 μg/mL) it was 43.83%; in data set [1] (125 μg/mL), 52.28%; in data set [1] (250 μg/mL), 60.42%. Further, in data set [2], the “IC50, Inhibition of pentosidine Ex/Em at 320/405 nM” value amounted to 65.89 µg/mL. For the same compound, the “% Inhibition of pentosidine Ex/Em at 320/405 nm” value worked out at 5.39% in data set [2] (15.63 μg/mL); 28.73% in data set [2] (31.25 μg/mL); 49.55% in data set [2] (62.5 μg/mL); 68.33% in data set [2] (125 μg/mL); 89.31% in data set [2] (250 μg/mL). Further, in data set [3], the “glucose uptake in Muscle cells” value is “enhanced glucose uptake”. Besides, 0.03 µg/mL produced 2.5% inhibition in the data set with TNF-α. Moreover, in the data set with TNF-α, at 0.06 µg/mL the inhibition was 4.5%. The compound further had an inhibition at 0.13 µg/mL in the data set on TNF-α of 11.9%. Also, the cell viability entry with TNF-α (THP-1 cells in the TNF-α test) was “without affecting the cell viability”. Further, the “glucose uptake in Adipocytes” value in the data set on Adipocytes was “enhanced glucose uptake”. Moreover, the “IC50 of DPPH scavenging” value in data set [4] was found to be 1.78 µg/mL. The same compound gave a 50% inhibitory concentration (IC50) against α-glucosidase of 433 µM.
In the case of `CC1=CC(=O)C(C(C)C)=CC1=O` [Thymoquinone, thymoquinone, reference compound], in data set [1], the “IC50, inhibition of vesperlysine Ex/Em at 390/460 nM” value came out at 157.80 µg/mL. Also, the “% inhibition of vesperlysine Ex/Em at 390/460 nm” value in data set [1] (15.63 μg/mL) turned out to be 0%; in data set [1] (31.25 μg/mL) it was 38.55%; in data set [1] (62.5 μg/mL) it was 40.81%; in data set [1] (125 μg/mL), 44.54%; in data set [1] (250 μg/mL), 56.69%. Further, in data set [2], the “IC50, Inhibition of pentosidine Ex/Em at 320/405 nM” value was 142.70 µg/mL. For the same compound, the “% Inhibition of pentosidine Ex/Em at 320/405 nm” value in data set [2] (15.63 μg/mL) turned out to be 0%; in data set [2] (31.25 μg/mL) it was 23.59%; in data set [2] (62.5 μg/mL) it was 0.06%; in data set [2] (125 μg/mL), 44.57%; in data set [2] (250 μg/mL) it was 61.80%. This compound also yielded an inhibition at 0.03 µg/mL in the data set with TNF-α of 22%. Moreover, the inhibition at 0.06 µg/mL with TNF-α was 31%. Moreover, at 0.13 µg/mL the inhibition in the data set on TNF-α was 35%. In addition, at α-glucosidase, the IC50 is 2480 µM.
